This note sets out measurements from EP1500700B1, “Use of a pectic acid lyase in a detergent” (KAO CORPORATION, priority 1997, dated 1998).

Assay [1] relates to pectic acid lyases from Example 3 and Example 8. Format: biochemical, Bacillus sp. KSM-P15. As to conditions: pH 7.5.
Assay [2] deals with wild-type and reconbinant enzyme. Briefly: Effect of the arginine-modifier 2,3-butanedione on residual activity. As to conditions: 0.1 M borate buffer pH 9.5, 30°C, 30 minutes; both enzymes. Format: biochemical, Bacillus sp. KSM-P15.
Assay [3] deals with recombinant pectic acid lyase of Bacillus sp. KSM-P15 (rPAL, Example 8), Sequence No. 1. Kind of assay: Effect of H2O2 on residual pectic acid lyase activity. Format: biochemical. As to conditions: in the presence of 3% H2O2; 50 mM Tris-HCl buffer (pH 7.5), 30°C, 30 minutes. Here is the method: (§1) 0.5 M glycine-NaOH buffer (pH 10.5) (0.3 ml), 6 mM calcium chloride (0.3 ml), and deionized water (1.7 ml) were placed in a test tube, which was then incubated at 30°C for 5 minutes. An appropriately diluted enzyme solution [0.1 ml, diluted with 50 mM Tris-HCl buffer containing 1 mM calcium chloride (pH 7.5)] was added to the test tube, which was further incubated at constant temperature for 5 minutes. An aqueous solution of polygalacturonic acid (0.6 ml, 1% (w/v), product of ICN Biomedicals Co., Lot 14482, pH 6.8 adjusted with sodium hydroxide solution) was added to the enzyme solution to initiate reaction, and the mixture was incubated at 30°C for 10 minutes. The reaction was terminated by the addition of 3 ml of 50 mM HCl. The quantity of unsaturated Oligogalacturonic acid formed in the reaction was determined through measuring the absorbance at 235 nm and calculating with the molar extinction coefficient of unsaturated digalacturonide (4600 M^-1 cm^-1, Hasegawa & Nagel, J. Food Sci., 31, 838-845, 1966). A test blank was prepared as follows: 50 mM hydrochloric acid (3 ml) was added to a reaction mixture treated without being incorporated with the enzyme solution, and subsequently an enzyme solution (0.1 ml) was added thereto. […]

The subject of assay [4] is pectic acid lyase from Bacillus sp. KSM-P15, wild type (BPAL, Example 3), Sequence No. 1. The description is as above. As to conditions: in the presence of 3% H2O2; 50 mM Tris-HCl buffer (pH 7.5), 30°C, 30 minutes. Format: biochemical. Here is the method: as §1

For `O[C@H](CS)[C@H](O)CS` (racemic) [dithiothreitol], the “inhibition (in words)” value in assay [1] is “slightly inhibited or did not completely inhibit the enzymes”.

With `CC(=O)C(C)=O` [2,3-butanedione], the “inhibition (residual activity)” value in assay [2] was at least 40%. Turning to `O=C(O)c1cc(SSc2ccc([N+](=O)[O-])c(C(=O)O)c2)ccc1[N+](=O)[O-]` [5,5'-dithiobis(2-nitrobenzoic acid)], the “inhibition (in words)” value in assay [1] is given as “slightly inhibited or did not completely inhibit the enzymes”. As to `O=C1CCC(=O)N1Br` [N-bromosuccinimide], the percentage inhibition in assay [1] was 30-40%. In the case of `CCN1C(=O)C=CC1=O` [N-ethylmaleimide], the “inhibition (in words)” value in assay [1] is “slightly inhibited or did not completely inhibit the enzymes”.

For `CCOC(=O)OC(=O)OCC` [diethyl pyrocarbonate], the “inhibition (in words)” value in assay [1] was “slightly inhibited or did not completely inhibit the enzymes”. Turning to `O=CC=O` [glyoxal], the “inhibition (in words)” value in assay [1] is “slightly inhibited or did not completely inhibit the enzymes”. As for `O=C(O)CI` [iodoacetic acid], the “inhibition (in words)” value in assay [1] is reported as “slightly inhibited or did not completely inhibit the enzymes”. As to `O=C(O)c1cc[c]([Hg][Cl])cc1` [p-Chloromercuribenzoic acid], the “inhibition (in words)” value in assay [1] is reported as “slightly inhibited or did not completely inhibit the enzymes”. On to H2O2, for which the “inactivation (residual activity, in words)” value in assay [3] and in assay [4] was “not be inactivated” each time.
